What was measured:
[1] = molecular target: T1, human neutrophil elastase (HNE) (Homo sapiens, UniProt P08246); test: In vitro inhibition of HNE using a fluorogenic peptide substrate (Example I-A); assay type: biochemical; conditions: substrate MeOSuc-Ala-Ala-Pro-Val-AMC, continuous read-out, 384 MTP format
T1 construct: purchased SERVA Electrophoresis GmbH, Heidelberg, Germany #20927.01
T1 sequence (P08246 30-267): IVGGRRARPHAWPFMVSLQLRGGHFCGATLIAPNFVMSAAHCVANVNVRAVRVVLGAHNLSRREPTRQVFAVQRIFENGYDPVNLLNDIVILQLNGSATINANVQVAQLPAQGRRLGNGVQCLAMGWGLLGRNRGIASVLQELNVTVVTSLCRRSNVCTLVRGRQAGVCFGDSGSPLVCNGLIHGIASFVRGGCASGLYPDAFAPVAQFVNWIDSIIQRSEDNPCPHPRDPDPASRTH
Method: The test solution is prepared by mixing 10 μl of test compound dilution, 20 μl of HNE enzyme dilution (final concentration 8-0.4 μU/ml, routinely 2.1 μU/ml) and 20 μl of substrate dilution (final concentration 1 mM-1 μM, routinely 20 μM), respectively. The solution is incubated for 0-2 hrs at 37° C. (routinely one hour). The fluorescence of the liberated AMC due to the enzymatic reaction is measured at 37° C. (TECAN spectra fluor plus plate reader). […] IC50 values are determined by RFU-versus-[I] plots. Km and Km(app.) values are determined by Lineweaver-Burk plots and converted to K1 values by Dixon plots.

[2] = test system: human polymorphonuclear cells (PMNs); test: In vitro PMN elastolysis assay (Example II-A); assay type: cell-based; conditions: mean±s.e.m.
Method: This assay is used to determine the elastolytic potential of human polymorphonuclear cells (PMNs) and assess the proportion of degradation due to neutrophil elastase [cf. Z. W. She et al., Am. J. Respir. Cell. Mol. Biol. 9386-392 (1993)].
Tritiated elastin, in suspension, is coated on to a 96 well plate at 10 μg per well. Test and reference [ZD-0892 (J. Med. Chem. 40, 1876-1885, 3173-3181 (1997), WO 95/21855) and α1 protease inhibitor (α1PI)] compounds are added to the wells at the appropriate concentrations. Human PMNs are separated from peripheral venous blood of healthy donors and resuspended in culture media. The neutrophils are added to the coated wells at concentrations ranging between […] cells per well. Porcine pancreatic elastase (1.3 μM) is used as a positive control for the assay, and α1PI (1.2 μM) is used as the positive inhibitor of neutrophil elastase. The cellular control is PMNs without compound at each appropriate cell density. The cells plus compounds are incubated in a humidified incubator at 37° C. for 4 hours. The plates are centrifuged to allow the harvest of cell supernatant only. The supernatant is transferred in 75 μl volumes to corresponding wells of a 96 well Lumaplate™ (solid scintillant containing plates). The plates are dried until no liquid is visible in the wells and read in a beta counter for 3 minutes per well. […]

IC50 [1] [nM]	Compound	further results
20	CC(=O)C1=C(C)N(c2cccc(C(F)(F)F)c2)C(=O)N(Cc2ccc(C(CC(C)C)C(=O)O)cc2)C1c1ccc(C#N)cc1 (stereo not shown) [Example 19]	–
70	C=CCOC(=O)C1=C(C)N(c2cccc(C(F)(F)F)c2)C(=O)N(CC(=O)NS(=O)(=O)c2ccc(C(F)(F)F)cc2)C1c1ccc(C#N)cc1 (stereo not shown) [Example 67]	–
60	CC1=C(C(=O)c2cccnc2)C(c2ccc(C#N)cc2)NC(=O)N1c1cccc(C(F)(F)F)c1 (stereo not shown) [Example 21A, 4-{6-Methyl-2-oxo-5-(pyridin-3-ylcarbonyl)-1-[3-(trifluoromethyl)phenyl]-1-,2,3,4-tetrahydro-pyrimidin-4-yl}benzonitrile]	–
120	CC1=C(C(=O)O)C(c2ccc(C#N)cc2)N(Cc2cccc(/C=C/C(=O)O)c2)C(=O)N1c1cccc(C(F)(F)F)c1 (stereo not shown) [Example 39, 3-{3-[(E)-2-Carboxyvinyl]benzyl}-4-(4-cyanophenyl)-6-methyl-2-oxo-1-[3-(trifluoromethyl)-phenyl]-1,2,3,4-tetrahydropyrimidine-5-carboxylic acid]	–
70	CC1=C(C#N)C(c2ccc(C#N)nc2)NC(=O)N1c1cccc(C(F)(F)F)c1 (stereo not shown) [Example 19A, 4-(6-Cyanopyridin-3-yl)-6-methyl-2-oxo-1-[3-(trifluoromethyl)phenyl]-1,2,3-,4-tetrahydro-pyrimidine-5-carbonitrile]	–
20	CC1=C(C(=O)c2ccco2)C(c2ccc(C#N)cc2)N(CC(=O)O)C(=O)N1c1cccc(C(F)(F)F)c1 (stereo not shown) [Example 29A, [6-(4-Cyanophenyl)-5-(2-furoyl)-4-methyl-2-oxo-3-[3-(trifluoromethyl)pheny-l]-3,6-dihydropyrimidin-1(2H)-yl]acetic acid]	–
10	CC(=O)C1=C(C)N(c2cccc(C(F)(F)F)c2)C(=O)N(CC(=O)NS(=O)(=O)c2ccc(C#N)cc2)[C@@H]1c1ccc(C#N)cc1 [Example 74]	–
30	CC1=C(C(=O)c2ccco2)C(c2ccc(C#N)cc2)N(Cc2cccc(C(=O)O)c2)C(=O)N1c1cccc(C(F)(F)F)c1 (stereo not shown) [Example 44]	–
30	COC(=O)c1cccc(CN2C(=O)N(c3cccc(C(F)(F)F)c3)C(C)=C(C(C)=O)C2c2ccc(C#N)cc2)c1 (stereo not shown) [Example 1, Methyl 3-{[5-acetyl-6-(4-cyanophenyl)-4-methyl-2-oxo-3-[3-(trifluoromethyl-)phenyl]-3,6-dihydropyrimidin-1(2H)-yl]methyl}benzoate]	–
–	COc1ccc(C(=O)N[C@H](C(=O)N2CCC[C@H]2C(=O)N[C@H](C(=O)C(F)(F)F)C(C)C)C(C)C)cc1 [ZD-0892]	IC50 ([2]; n=2 different donors at 3.6×10^5 cells per well): 45.5 ± 7.75 nM
130	C=CCOC(=O)C1=C(C)N(c2cccc(C(F)(F)F)c2)C(=O)N(C2(C(=O)OCC)CC2)C1c1ccc(C#N)cc1 (stereo not shown) [Example 61]	–
20	CC1=C(C(=O)c2cccnc2)C(c2ccc(C#N)cc2)N(CC(=O)NS(=O)(=O)CC(F)(F)F)C(=O)N1c1cccc(C(F)(F)F)c1 (stereo not shown) [Example 55, 2-[6-(4-Cyanophenyl)-4-methyl-2-oxo-5-(pyridin-3-ylcarbonyl)-3-[3-(trifluoromethyl)phenyl]-3,6-dihydropyrimidin-1(2H)-yl]-N-[(2,2,2-trifluoroethyl)sulfonyl]acetamide]	–
–	α1PI: α1 protease inhibitor, used as the positive inhibitor of neutrophil elastase	inhibition of 3H-elastin elastolysis ([2]; at 1.2 μM, n=3 different donors at 3.6×10^5 cells per well): 83.46±3.97%
10	CC(=O)C1=C(C)N(c2cccc(C(F)(F)F)c2)C(=O)N(/C=C/C(=O)O)C1c1ccc(C#N)cc1 (stereo not shown) [Example 24]	–
8	CC(=O)C1=C(C)N(c2cccc(C(F)(F)F)c2)C(=O)N(Cc2ccc(C(=O)O)cc2)[C@@H]1c1ccc(C#N)cc1 [Example 22]	–
10	CC1=C(C(=O)c2cccnc2)C(c2ccc(C#N)cc2)N(CC(=O)O)C(=O)N1c1cccc(C(F)(F)F)c1 (stereo not shown) [Example 31A, [6-(4-Cyanophenyl)-4-methyl-2-oxo-5-(pyridin-3-ylcarbonyl)-3-[3-(trifluoro-methyl)phenyl]-3,6-dihydropyrimidin-1(2H)-yl]acetic acid]	–

From patent US8343987B2, “Heterocyclic derivatives” (Bayer Intellectual Property GmbH, priority 2004, dated 2013)
